Columns and labels:
HEI-OC1 cells = assay: Cell Titer-Glo cell viability assay, compound alone; format: cell-based; settings: all concentrations tested
Text: All compounds were further characterized via Cell Titer-Glo cell viability assay to determine toxicity of the compound alone in HEI-OC1 cells (table S1 and dataset in the Supplementary Materials). […] The other BRAF inhibitors had similar IC50 in the micromolar range and were nontoxic to cells (table S1).
In these screens, caspase-3 cleavage was chosen as the end point indicating cisplatin-induced apoptosis, because it allowed the inhibition of cell death to be monitored at the level of any molecular target upstream of caspase-3 cleavage in the HEI-OC1 cell line. Cells were plated at a previously optimized concentration of 1600 cells per well in medium without γ-interferon to limit proliferation and tested against 50 μM cisplatin based on a previous dose–response curve. Tested compounds were dissolved in DMSO before addition to medium with a final DMSO concentration of <0.5%. The screens are described in detail in our previous publications ([12], [13]). […] Pifithrin-α was added to each plate as a screening quality control. The linearity of the Caspase-Glo 3/7 (Promega) assay, which enables the measurement of light emitted as a result of caspase-3/7 cleavage and is suitable for HTS, was validated, and it was verified that 0.5% DMSO had no effect on the cell death kinetics. Compounds were screened in triplicate at final concentrations ranging from 1 nM to 85 μM and incubated for 22 hours. […]

[1] = test system: phosphorylated ERK (pERK); assay: pERK immunostaining of cisplatin-treated cochlear explants; format: cell-based, mouse; settings: 3 μM, 1 hour pretreatment, 10 min 150 μM cisplatin
Text: Tissue samples were then imaged via confocal microscopy.

P42 FVB mice = assay: Cisplatin-induced hearing loss in adult mice (ABR, OHC counts, pERK)
Procedure: As described in Fig. 4A, baseline auditory brainstem response (ABR) thresholds for P42 FVB mice were established 1 week before experimental procedures. […] Animals were allowed 21 days after cisplatin injection to recover, and final ABR thresholds were recorded.
Ten milligrams of cisplatin (479306, Sigma-Aldrich) powder was dissolved in 10 ml of sterile saline (0.9% NaCl) at 37°C for 40 to 60 min. Cisplatin was administered to FVB mice at 30 mg/kg via intraperitoneal injection. One day before cisplatin injection, mice received 1 ml of saline by subcutaneous injection. To ameliorate dehydration after cisplatin injection, 1 ml of warm saline was injected twice per day for at least 7 days or until body weight started to recover. The cages of cisplatin-treated mice were placed on the heating pad for at least 7 days or until body weight began to recover. Fresh mush food was daily given for at least 7 days.
Compounds were dissolved in a mixture of 10% DMSO, 5% Tween 80 (P1754, Sigma-Aldrich), 40% PEG-E-300 (91462-1KG, Sigma-Aldrich), and 45% 0.9% saline.
ABR in mice was measured for left ears as described previously with minor modifications ([13], [34]). In brief, ABR waveforms were recorded in a sound booth (Industrial Acoustic Company) by using subdermal needles positioned in the skull, below the pinna, and at the base of the tail, and the responses were fed into a low-impedance Medusa digital biological amplifier system (RA4L; TDT; 20-dB gain). At each frequency, the stimulus intensity was reduced from 90 to 0 dB in 10-dB steps to determine the threshold decibel SPL when the electrical response was just above the noise floor. ABR waveforms were averaged in response to 500 tone bursts. The recorded signals were filtered by a band-pass filter from 300 Hz to 3 kHz. Pretreatment ABR recordings of adult FVB mice (aged 6 weeks) were acquired 1 week before all treatments, and posttreatment ABR measurements were recorded 21 days after cisplatin treatment or 14 days after noise exposure. ABR threshold was determined by the presence of any of three or more of the five waveform peaks. […] All thresholds and shifts were determined independently by two experimenters for each mouse. Individual ABR wave 1 amplitudes were measured as the difference between the positive peak and the following negative trough.
Cochleae from adult mice were prepared and examined as described previously ([85], [86]). All images were acquired with a confocal microscope (LSM 700 or 710, Zeiss). Samples were stained with phalloidin (A12379 or A12380, Invitrogen) or with antibodies for other markers. The following primary antibodies were used: anti–myosin VI (1:400; 25-6791; Proteus Bioscience), anti–myosin VIIa ([…];138-1-s, Developmental Studies Hybridoma Bank), anti-Tuj1 (1:250; 801201, BioLegend), anti-pERK (1:400; 9101S, Cell Signaling Technology), or anti-Ctbp2 (1:500; 612044, BD Transduction). Anti-rabbit Alexa Fluor 488 (1:400; A11034) and anti-mouse Alexa Fluor 647 (1:400; A31571) secondary antibodies were purchased from Invitrogen. ProLong gold antifade reagent with 4′,6-diamidino-2-phenylindole (P36941, Invitrogen) was used to counterstain nuclei.

[2] = cited from earlier work
[3] = design: method as in PMID 29039591, PMID 31818130; settings: cited from earlier work
[4] = test system: BRAF, MEK, and ERK phosphorylation; assay: Western blot of cisplatin-induced MAPK phosphorylation in HEI-OC1 cells; settings: 14, 35, or 75 μM, 1 hour pretreatment, 50 μM cisplatin 1 hour
Procedure: Whole lysates of HEI-OC1 cells were prepared in lysis buffer (9803, Cell Signaling Technology) after adding protease (cOmplete ULTRA Tablets 05892791001) and phosphatase (PhosSTOP 04906845001) inhibitors (Roche). The lysates were centrifuged for 10 min at 15,000g at 4°C, and the supernatants were collected. Protein concentrations in protein solutions were determined with the BCA protein assay kit (23235, Thermo Fisher Scientific). Forty micrograms of total cell lysate was loaded on 4 to 20% SDS–polyacrylamide gel electrophoresis gels. The following antibodies were used for immunoblot analysis: anti-BRAF (14814S), anti-pBRAF (Ser^445, 2696S), anti-ERK1/2 (4695), anti-pERK1/2 (Thr^202/Tyr^204, 9101S), anti-MEK1/2 (9122S), and anti-pMEK1/2 (Ser^217/221, 41G9S) were obtained from Cell Signaling Technologies and anti–β-actin (C4; SC-47778) was purchased from Santa Cruz. The antibodies were used at dilutions ranging from 1:500 to 1:1000. Anti-mouse (P0447) and anti-rabbit (P0448) secondary antibodies were purchased from Dako Laboratories and diluted 1:5000. National Institutes of Health (NIH) ImageJ software was used to quantify the band intensities and recorded as a ratio to loading control β-actin. Each Western blot series (n) was carried out using cell lysates from separate experiments. Blot intensities were quantified using NIH ImageJ software.

CC(C)(C)c1nc(-c2cccc(NS(=O)(=O)c3c(F)cccc3F)c2F)c(-c2ccnc(N)n2)s1 [dabrafenib]
toxicity of the compound alone, cell viability assay (HEI-OC1 cells): nontoxic | effect on cisplatin-induced ERK phosphorylation in DC and IPhC regions [1]: prevented ERK activation | ERK phosphorylation in cochlear SCs after cisplatin (P42 FVB mice; 100 mg/kg 45 min pretreatment, 1 hour after cisplatin 30 mg/kg i.p.): attenuated | protection of ABR threshold at 16 kHz (P42 FVB mice; 100 mg/kg oral, cisplatin 30 mg/kg i.p.): nearly full protection | loss of OHCs in cochlea, combined with cisplatin (P42 FVB mice; 100 mg/kg oral, cisplatin 30 mg/kg, 8-, 16-, 32-kHz regions): limited | OHC loss, drug alone (P42 FVB mice; 100 mg/kg oral, no cisplatin): No OHC loss | whole-body toxicity or ototoxic effects (P42 FVB mice; 3-day dabrafenib-alone treatment, weight, appearance/behavior, ototoxicity up to 21 days): did not observe whole-body toxicity or ototoxic effects | survival rate of mice (P42 FVB mice; cisplatin 30 mg/kg i.p., alone or combined with dabrafenib): 50% | crossing of the blood-labyrinth barrier (P42 FVB mice; inferred from effects in mice via oral delivery): crosses the blood-labyrinth barrier | ABR wave 1 amplitude at 16 kHz versus cisplatin alone (P42 FVB mice; significant at 90-dB SPL): higher | half-life in circulation [2]: roughly 8 hours | blood-brain barrier penetration [3]: penetrates the blood-brain barrier | effect on cisplatin-induced BRAF, MEK, and ERK phosphorylation [4]: mitigated these changes in a dose-dependent manner
